The source of these data is the supplement of paper PMC6045584.

± gives the standard deviation of the averaged measurements.

Compound in test [1]: CN(C)C/C=C/C(=O)Nc1cc2c(Nc3ccc(F)c(Cl)c3)ncnc2cc1O[C@H]1CCOC1 [AFATINIB]
As to the kind of experiment: surviving fraction relative to DMSO-only wells; higher = less growth inhibition. Particulars: exposure time: 5 days. In outline: (§1)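 Inhibitors at 0.5, 1, 5, 10, 50, 100, 500 and 1000 nM were applied continuously for five days to tumour cell lines seeded in log phase at 250–500 cells per well in 384-well plates 24 hours earlier. Viability was measured by CellTiter-Glo luminescence and expressed as surviving fraction relative to the median of DMSO-only wells. Luminescence was taken after 10 minutes at room temperature.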

Compound in test [2]: T1, CNC(=O)c1ccc(N2C(=S)N(c3ccc(C#N)c(C(F)(F)F)c3)C(=O)C2(C)C)cc1F [MDV3100]
Described as above. To be noted: exposure time: 5 days. Summed up:
as §1

Compound in test [3]: CC1(C)CC(=O)c2c(C(F)(F)F)nn(-c3ccc(C(N)=O)c(N[C@H]4CC[C@H](OC(=O)CN)CC4)c3)c2C1 [SNX-5422]
Put plainly: area under dose-response curve of surviving fraction (unscaled, Aref=0) (surviving fraction x log10(nM)); higher = more resistant. To be noted: exposure time: 5 days; dose range 0.5-1000 nM. In outline:
(§2)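 Surviving fractions were fitted by 3-parameter logistic regression in the drc R package to give dose-response survival curves. They came from tumour cell lines treated for five days with eight inhibitor concentrations from 0.5 to 1000 nM and read by CellTiter-Glo luminescence against DMSO-only wells. The area under the curve is the unscaled activity area. It was calculated over log10 dose with Aref = 0.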

Compound in test [4]: CC[C@@H]1C(=O)N(C)c2cnc(Nc3ccc(C(=O)NC4CCN(C)CC4)cc3OC)nc2N1C1CCCC1 [BI-2536]
The test is described as above. Particulars: exposure time: 5 days; dose range 0.5-1000 nM. Summed up: as §2

Compound in test [5]: Nc1nc2[nH]cnc2c(=S)[nH]1 [TIOGUANINE]
Described as above. To be noted: exposure time: 5 days; dose range 0.5-1000 nM. In outline:
as §2

Compound in test [6]: T1, MDV3100
Described as above. To be noted: exposure time: 5 days; dose range 0.5-1000 nM. In outline:
as §2

Regarding HCC202 BREAST, the surviving fraction worked out at 1.12 ± 0.36 in test [1] (0.5 nM); 0.943 ± 0.36 in test [1] (1 nM); 0.561 ± 0.2 in test [1] (5 nM); 0.442 ± 0.098 in test [1] (10 nM); 0.253 ± 0.07 in test [1] (50 nM); 0.191 ± 0.048 in test [1] (100 nM). Also, the surviving fraction in test [1] (500 nM) worked out at 0.0983 ± 0.031; in test [1] (1000 nM), 0.0747 ± 0.0055; in test [2] (0.5 nM) it was 0.968 ± 0.098; in test [2] (1 nM), 0.983 ± 0.18; in test [2] (5 nM), 0.865 ± 0.21; in test [2] (10 nM) it was 0.97 ± 0.34. The surviving fraction is 1.1 ± 0.043 in test [2] (50 nM), 0.86 ± 0.12 in test [2] (100 nM), 0.999 ± 0.25 in test [2] (500 nM) and 0.623 ± 0.085 in test [2] (1000 nM). Further, the “area under dose-response curve” value in test [3] came to 2.33; in test [4], 1.68; in test [5] it was 4.41.
Consider HCC1954 BREAST, for which the surviving fraction in test [1] (0.5 nM) was 0.969 ± 0.079; in test [1] (1 nM), 0.886 ± 0.021; in test [1] (5 nM), 0.763 ± 0.028; in test [1] (10 nM) it was 0.56 ± 0.0078; in test [1] (50 nM) it was 0.471 ± 0.094; in test [1] (100 nM) it was 0.479 ± 0.025. Further, the surviving fraction came to 0.266 ± 0.038 in test [1] (500 nM); 0.145 ± 0.011 in test [1] (1000 nM); 1.12 ± 0.018 in test [2] (0.5 nM); 0.975 ± 0.18 in test [2] (1 nM); 1.17 ± 0.19 in test [2] (5 nM); 1.25 ± 0.25 in test [2] (10 nM). Further, the surviving fraction amounted to 0.919 ± 0.077 in test [2] (50 nM), 0.909 ± 0.017 in test [2] (100 nM), 0.9483 ± 0.0088 in test [2] (500 nM) and 0.771 ± 0.012 in test [2] (1000 nM). In addition, the “area under dose-response curve” value was 1.62 in test [3], 1.92 in test [4] and 3.09 in test [5].
For the test system HCT15 LARGE INTESTINE, the surviving fraction in test [1] (0.5 nM) was 1.12 ± 0.03; in test [1] (1 nM), 1.05 ± 0.02; in test [1] (5 nM), 1.04 ± 0.064; in test [1] (10 nM), 1.05 ± 0.027; in test [1] (50 nM) it was 1.1 ± 0.052; in test [1] (100 nM), 1.06 ± 0.068. Further, the surviving fraction in test [1] (500 nM) is 0.97 ± 0.081; in test [1] (1000 nM) it was 0.632 ± 0.063; in test [2] (0.5 nM), 0.906 ± 0.038; in test [2] (1 nM), 0.797 ± 0.11; in test [2] (5 nM), 0.862 ± 0.075; in test [2] (10 nM), 0.548 ± 0.11. Also, the surviving fraction in test [2] (50 nM) was 0.938 ± 0.021; in test [2] (100 nM), 0.916 ± 0.027; in test [2] (500 nM), 0.968 ± 0.019; in test [2] (1000 nM), 0.716 ± 0.1. The “area under dose-response curve” value turned out to be 2.24 in test [3], 1.88 in test [4] and 2.75 in test [6].
For the test system HMT3552 BREAST, the surviving fraction in test [1] (0.5 nM) stood at 0.823; in test [1] (1 nM), 0.878; in test [1] (5 nM), 0.885; in test [1] (10 nM) it was 0.727; in test [1] (50 nM) it was 0.904; in test [1] (100 nM) it was 0.881. Also, the surviving fraction in test [1] (500 nM) amounted to 0.593; in test [1] (1000 nM), 0.278; in test [2] (0.5 nM), 1.02 ± 0.073; in test [2] (1 nM) it was 1.02 ± 0.079; in test [2] (5 nM), 1.02 ± 0.013; in test [2] (10 nM), 1.03 ± 0.065. Besides, the surviving fraction in test [2] (50 nM) stood at 1.14 ± 0.031; in test [2] (100 nM) it was 1.23 ± 0.023; in test [2] (500 nM) it was 1.18 ± 0.053; in test [2] (1000 nM) it was 1.24 ± 0.086. Further, the “area under dose-response curve” value in test [6] is 3.66.
For HS57T BREAST, the surviving fraction in test [1] (0.5 nM) amounted to 1.05 ± 0.053; in test [1] (1 nM) it was 1.03 ± 0.056; in test [1] (5 nM) it was 1.13 ± 0.023; in test [1] (10 nM), 1.04 ± 0.051; in test [1] (50 nM), 1.11 ± 0.077; in test [1] (100 nM) it was 1.09 ± 0.076. Moreover, the surviving fraction in test [1] (500 nM) was 0.787 ± 0.024; in test [1] (1000 nM) it was 0.423 ± 0.057; in test [2] (0.5 nM), 0.866 ± 0.091; in test [2] (1 nM), 0.918 ± 0.032; in test [2] (5 nM) it was 0.963 ± 0.033; in test [2] (10 nM), 0.947 ± 0.12. Also, the surviving fraction in test [2] (50 nM) is 0.847 ± 0.069; in test [2] (100 nM), 0.955 ± 0.043; in test [2] (500 nM), 0.923 ± 0.068; in test [2] (1000 nM), 0.912 ± 0.041.
For the test system HU09 BONE, the surviving fraction in test [1] (0.5 nM) was 1.08 ± 0.085; in test [1] (1 nM), 1.02 ± 0.1; in test [1] (5 nM), 1.16 ± 0.074; in test [1] (10 nM) it was 1.14 ± 0.087; in test [1] (50 nM) it was 1.12 ± 0.067; in test [1] (100 nM), 1.06 ± 0.15. The surviving fraction in test [1] (500 nM) is 0.6 ± 0.049; in test [1] (1000 nM), 0.231 ± 0.012; in test [2] (0.5 nM) it was 0.984 ± 0.077; in test [2] (1 nM) it was 1.03 ± 0.11; in test [2] (5 nM), 1.05 ± 0.071; in test [2] (10 nM), 1.12 ± 0.18. In addition, the surviving fraction was found to be 1 ± 0.055 in test [2] (50 nM), 1.04 ± 0.057 in test [2] (100 nM), 0.952 ± 0.053 in test [2] (500 nM) and 0.954 ± 0.018 in test [2] (1000 nM). The entries for the “area under dose-response curve” value in test [3], in test [4] and in test [5] were 1.39, 0.614 and 3.42, respectively.
As for MDAMB134 BREAST, the surviving fraction worked out at 1.07 ± 0.046 in test [1] (0.5 nM); 0.997 ± 0.15 in test [1] (1 nM); 1.24 ± 0.25 in test [1] (5 nM); 0.967 ± 0.15 in test [1] (10 nM); 1.09 ± 0.078 in test [1] (50 nM); 0.886 ± 0.076 in test [1] (100 nM). Also, the surviving fraction in test [1] (500 nM) is 0.741 ± 0.031; in test [1] (1000 nM), 0.725 ± 0.12; in test [2] (0.5 nM) it was 0.813 ± 0.09; in test [2] (1 nM), 0.82 ± 0.1; in test [2] (5 nM), 0.894 ± 0.2; in test [2] (10 nM) it was 0.918 ± 0.0099. The surviving fraction in test [2] (50 nM) was determined as 1.06 ± 0.15; in test [2] (100 nM) it was 0.794 ± 0.033; in test [2] (500 nM) it was 1.17 ± 0.018; in test [2] (1000 nM), 0.992 ± 0.25. In addition, the “area under dose-response curve” value turned out to be 2.8 in test [3], 2.89 in test [4] and 3.2 in test [5].
Take NOS1 BONE: the surviving fraction was found to be 0.993 ± 0.2 in test [1] (0.5 nM); 0.997 ± 0.014 in test [1] (1 nM); 1.05 ± 0.066 in test [1] (5 nM); 0.947 ± 0.04 in test [1] (10 nM); 1.13 ± 0.11 in test [1] (50 nM); 0.983 ± 0.1 in test [1] (100 nM). Besides, the surviving fraction in test [1] (500 nM) was found to be 0.238 ± 0.019; in test [1] (1000 nM), 0.096 ± 0.0027; in test [2] (0.5 nM), 1.18 ± 0.11; in test [2] (1 nM), 1 ± 0.043; in test [2] (5 nM) it was 1.11 ± 0.069; in test [2] (10 nM) it was 1.1 ± 0.2. For the same test system, the surviving fraction in test [2] (50 nM) came out at 1.04 ± 0.062; in test [2] (100 nM), 1.16 ± 0.086; in test [2] (500 nM), 0.972 ± 0.073; in test [2] (1000 nM), 1.03 ± 0.027. Further, the entries for the “area under dose-response curve” value in test [3], in test [4] and in test [5] were 2.09, 1.35 and 3.79, respectively.
